Legend:
Experiment in all cases: relative viability (nuclei count vs DMSO), 5 days (fraction); higher = more cells survive
Axitinib + Tozasertib = compound: CNC(=O)c1ccccc1Sc1ccc2c(/C=C/c3ccccn3)n[nH]c2c1 [Axitinib] + Cc1cc(Nc2cc(N3CCN(C)CC3)nc(Sc3ccc(NC(=O)C4CC4)cc3)n2)n[nH]1 [Tozasertib] (partner 0.1 µM)
In short: (§1)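 For relative viability, nuclei counts in treated wells were divided by those in vehicle wells. Lung cancer cell lines had been pin-tool dosed in 1536-well plates the day after seeding and cultured for 5 days, then fixed and stained in one step (final 0.05% Triton X-100, 1% formaldehyde, 1 ug/ml Hoechst) and imaged at 4×. Doses were one drug alone or a fixed anchor-drug dose plus five library-drug doses (not always all listed) in √10 steps, and values are duplicate-plate medians.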

Bemcentinib + Decitabine = compound: Nc1nc(Nc2ccc3c(c2)CC[C@@H](N2CCCC2)CC3)nn1-c1cc2c(nn1)-c1ccccc1CCC2 [Bemcentinib] + Nc1ncn([C@H]2C[C@H](O)[C@@H](CO)O2)c(=O)n1 [Decitabine] (partner 2 µM)
In short: as §1

Bemcentinib + Alpelisib = compound: Nc1nc(Nc2ccc3c(c2)CC[C@@H](N2CCCC2)CC3)nn1-c1cc2c(nn1)-c1ccccc1CCC2 [Bemcentinib] + Cc1nc(NC(=O)N2CCC[C@H]2C(N)=O)sc1-c1ccnc(C(C)(C)C(F)(F)F)c1 [Alpelisib] (partner 2 µM)
In short: as §1

[1] = compound: Nc1nc(Nc2ccc3c(c2)CC[C@@H](N2CCCC2)CC3)nn1-c1cc2c(nn1)-c1ccccc1CCC2 [Bemcentinib] + CC(=O)c1c(C)c2cnc(Nc3ccc(N4CCNCC4)cn3)nc2n(C2CCCC2)c1=O [Palbociclib] (partner 0.5 µM)
In short: as §1

Cell Line	relative viability (Axitinib + Tozasertib; first compound 0.005 µM)	relative viability (Axitinib + Tozasertib; first compound 0.01581 µM)	relative viability (Axitinib + Tozasertib; first compound 0.05 µM)	relative viability (Axitinib + Tozasertib; first compound 0.1581 µM)	relative viability (Axitinib + Tozasertib; first compound 0.5 µM)	relative viability (Bemcentinib + Decitabine; first compound 0.04 µM)	relative viability (Bemcentinib + Decitabine; first compound 0.1265 µM)	relative viability (Bemcentinib + Decitabine; first compound 0.4 µM)	relative viability (Bemcentinib + Decitabine; first compound 1.265 µM)	relative viability (Bemcentinib + Decitabine; first compound 4 µM)	relative viability (Bemcentinib + Alpelisib; first compound 0.04 µM)	relative viability (Bemcentinib + Alpelisib; first compound 0.1265 µM)	relative viability (Bemcentinib + Alpelisib; first compound 1.265 µM)	relative viability (Bemcentinib + Alpelisib; first compound 4 µM)	relative viability ([1]; first compound 0.04 µM)	relative viability ([1]; first compound 0.1265 µM)	relative viability ([1]; first compound 0.4 µM)	relative viability ([1]; first compound 1.265 µM)	relative viability ([1]; first compound 4 µM)	relative viability (Bemcentinib + Alpelisib; first compound 0.4 µM)
HOP-62	0.38	0.414	0.343	0.44	0.577	0.25	0.198	0.255	0.207	0.216	0.914	0.831	1.19	0.747	0.46	0.501	0.485	0.474	0.463	–
Calu-6	–	–	–	–	–	–	–	–	–	–	0.928	1.04	1.04	1.07	–	–	–	–	–	1.01
NCI-H1648	0.506	0.643	–	0.483	0.602	0.411	0.413	0.483	0.569	0.43	–	–	–	–	0.255	0.236	0.276	0.297	0.291	–
NCI-H1792	–	–	–	–	–	0.582	0.741	0.594	0.454	0.63	0.812	0.66	0.746	0.781	0.711	0.714	0.675	0.721	0.664	0.828
CAL-12T	0.417	0.363	0.34	0.365	0.394	–	–	–	–	–	1.19	1.51	1.31	1.16	0.3	0.59	0.47	0.489	0.45	1.37
NCI-H1650	0.448	0.382	0.49	0.411	0.482	0.428	0.416	0.389	0.517	0.417	–	–	–	–	0.324	0.366	0.307	0.354	0.373	–
NCI-H1703	–	–	–	–	–	–	–	–	–	–	0.29	0.382	0.312	0.426	–	–	–	–	–	0.39
NCI-H522	0.662	0.573	0.46	0.575	0.577	0.759	0.789	0.657	0.558	0.619	–	–	–	–	0.834	1.04	1.07	1.1	0.915	–
NCI-H2228	0.266	0.289	0.308	0.293	0.291	–	–	–	–	–	–	0.636	0.809	0.959	0.268	0.827	0.844	0.836	0.997	0.881
NCI-H1623	0.457	0.506	0.432	0.498	0.45	–	–	–	–	–	–	–	–	–	–	–	–	–	–	–
NCI-H1563	–	–	–	–	–	–	–	–	–	–	0.93	1.07	0.926	0.839	–	–	–	–	–	0.943
NCI-H596	1.05	0.938	0.877	0.893	0.935	1	1.04	1.09	1.1	1.08	0.574	0.612	0.537	0.392	–	–	–	–	–	0.524
